From patent US20150359802A1, “PARENTERAL PHARMACEUTICAL FORM WHICH RELEASES AROMATSE INHIBITOR AND GESTAGENS, FOR THE TREATMENT OF ENDOMETRIOSIS” (Bayer Intellectual Property GmbH, priority 2010, published 2015)
“Also recorded” adds a separate entry of the source. Read-outs that look alike come from different tables or passages of the source.

What was measured:
ovulation = conditions: cited from earlier work
[1] = Estimation of IVR release rate and serum level for human application
Method: Subsequently, an estimation was made of the in vitro IVR release rate of an IVR for human application, which is necessary to achieve serum levels which led to a lowering of estradiol in the monkeys. […] The corresponding effective serum concentration in humans is estimated to be 9 μg/l, taking into account species-specific plasma protein binding, according to equation (1) below.
The mean in vivo release rate from the IVR which is necessary to achieve a plasma concentration of 9 μg/l in humans is calculated according to equation 2. For this equation, the plasma clearance of anastrozole in humans is required.

plasma protein [2] = experiment: Plasma protein binding by equilibrium dialysis, cynomolgus monkey plasma; assay type: in vitro ADME; conditions: seven hours at 37° C.
[3] = as above; assay type: in vitro ADME; conditions: cynomolgus monkey, plasma, seven hours at 37° C., read-out: Plasma protein binding [free fraction, fu]
[4] = Plasma concentration of anastrozole after IVR administration and PK-based in vivo release; design: species or system female cynomolgus monkeys; conditions: in vitro release in buffer vs calculated in vivo release, primate experiment
Method: The concentration of anastrozole in plasma samples was quantitatively determined by means of liquid-liquid extraction with liquid chromatography coupled to tandem mass spectrometry (LC/ESI-MS/MS). The analyses were carried out on an Agilent 1200 and an AB Sciex Triple Quad 5500 in positive ionization mode. For this purpose, 100 μl were initially taken from each plasma sample, admixed with 300 μl of an aqueous solution containing any non-structurally-related compound as internal standard, and extracted with 1.3 ml of methyl tert-butyl ether on a Perkin Elmer Mass Prep Station. […] 5 μl of this were injected into the LC/MS/MS, the m/z transition 294 ([M+H]+)→225 was recorded, and the signal was integrated with the AB Sciex Software Analyst 1.5. The concentrations of the plasma samples were determined from the resulting areas with the aid of a calibration curve present in the same sequence (0, 0.0500 to 1000 nM in plasma, n=2). […]
The mean plasma concentration (Css) of anastrozole was calculated as the mean value of all measured concentrations per dose group from the day after insertion of the IVR up to the end of the experiment.
The mean in vivo release rates (Rin) from the IVR were subsequently calculated according to the equation: Rin=Css*CL (see table X). […]

plasma protein [5] = experiment: Plasma protein binding by equilibrium dialysis, human plasma; assay type: in vitro ADME; conditions: seven hours at 37° C.
[6] = as above; assay type: in vitro ADME; conditions: human, plasma, seven hours at 37° C., read-out: Plasma protein binding [free fraction, fu]
systemic estrogen levels = conditions: 1 mg/day, post-menopausal women; cited from earlier work
ovary = experiment: IVR study in cynomolgus monkeys: ultrasound scans of the ovary; assay type: in vivo, cynomolgus monkey; conditions: for Ovarian cysts (ultrasound): cycle days 1-26
From the text: (§1) This comprises, among other things, cycle length, hormone receptors, morphology, endocrine system and regulation of the pituitary-ovarian axis (Borghi, M. R., R. Niesvisky, et al. (1983). “Administration of agonistic and antagonistic analogues of LH-RH induce anovulation in Macaca fasicularis.” Contraception 27(6): 619-626. Satoru Oneda, T. I., Katsumi Hamana (1996). “Ovarian Response to Exogenous Gonadotropins in Infant Cynomolgus Monkeys” International Journal of Toxicology, 15(3): 194-204). The pharmacodynamic and pharmacokinetic effect of intravaginally administered dosages of the aromatase inhibitor anastrozole was studied over the duration of a menstrual cycle by inserting a vaginal ring (IVR) having three different release rates. Among other things, the influence on the pituitary-ovarian axis was studied by determining the hormones estradiol, FSH, progesterone (the blood collections required for this were carried out over the entire experimental period; on day 1, four collections [0 h, 1 h, 3 h, 6 h after insertion of the IVR]; 1 collection each on days 2 and 3; after this time point, further collections followed on every 3rd day) and by ultrasound scans of the ovary (2× per week). Hormone determination was carried out according to the instructions provided by the supplier (estradiol [Siemens/DPC], progesterone [Beckmann-Culter/DSL], FSH [SHG]). An IVR having an initial in vitro release of 0 μg/day (placebo, no anastrozole), 390 μg/day, 85 μg/day or 27 μg/day was inserted into five animals per group one to three days after the last day of menstruation. Animals having irregular cycles were excluded from the experiment.

in vivo = conditions: female, cynomolgus monkey, plasma, iv, 0.2 mg/kg
ovarian stimulation = conditions: applied orally; cited from earlier work
[7] = cited from earlier work
pituitary-ovarian axis = experiment: IVR study in cynomolgus monkeys: estradiol, FSH and progesterone levels; assay type: in vivo, cynomolgus monkey
From the text: as §1

[8] = IVR 27 μg/day initial in vitro release
[9] = IVR 85 μg/day initial in vitro release
[10] = IVR 390 μg/day initial in vitro release

For `C#C[C@]1(OC(C)=O)CC[C@H]2[C@@H]3CCC4=CC(=NO)CC[C@@H]4[C@H]3CC[C@@]21CC` (mixture of isomers) [Norgestimate], the Ovulation inhibition dose (ovulation; Neumann et al) is given as 200 μg/day p.o and the Ovulation inhibition dose (ovulation; Taubert & Kuhl) is given as 200 μg/day p.o.

In the case of `C#C[C@]1(O)CC[C@H]2[C@@H]3CCC4=CC(=O)CC[C@@H]4[C@H]3C(=C)C[C@@]21CC` [3-Keto-Desogestrel], the Ovulation inhibition dose (ovulation; Taubert & Kuhl) is listed as 60 μg/day p.o.

For `CC(C)(C#N)c1cc(Cn2cncn2)cc(C(C)(C)C#N)c1` [Anastrozole, anastrozole], the “initial in vitro release rate, for humans” value ([1]; […]) was “about 350 μg per day”, the “Calculated initial in vitro IVR release rate (in buffer) with a decreasing release rate” value ([1]; decrease 32% in 4 weeks, human dose) was “≈350 μg/day/60 kg patient” and the “corresponding effective serum concentration in humans” value ([1]; from monkey Css 5.9 μg/l, corrected for species-specific plasma protein binding) was 9 µg/L. For the same molecule, the “constant in vitro release rate in buffer, for humans” value ([1]; in vitro/in vivo correction factor 1.1) was 270 µg/day, the “human in vivo release rate, kept constant” value ([1]; to achieve levels that lowered estradiol in the monkeys) was 246 µg/day and the “Calculated constant in vitro IVR release rate (in buffer)” value ([1]; to maintain in humans plasma levels of the effective dose in cynomolgus monkeys) was “≈270 μg/day/60 kg patient”. For the same molecule, the “Calculated constant in vivo IVR release rate in humans” value ([1]; to maintain plasma levels of the effective dose in cynomolgus monkeys) was “≈250 μg/day/60 kg patient”, the “Plasma protein binding [free fraction, fu]” value (plasma protein [2]) was 34% and the fraction unbound at 7 h [3] was 0.52. The “in vitro/in vivo correction factor” value [4] was 1.1, the “Plasma protein binding [free fraction, fu]” value (plasma protein [5]) was 52% and the fraction unbound at 7 h [6] was 0.34. For the same molecule, the “reduction of systemic estrogen levels” value (systemic estrogen levels) was “more than 85%”, the “Ovarian cysts (ultrasound)” value (ovary; [8]) was “None” and the “Ovarian cysts (ultrasound)” value (ovary; [9]) was “None”. The “Ovarian cysts (ultrasound)” value (ovary; [10]) was “None”, the “formation of ovarian cysts” value (ovary; at the dosages used (27, 85, 390 μg/day)) was “no formation of ovarian cysts” and the clearance (in vivo) was 9.67 mL/min/kg. For the same molecule, the “oral dosage at which ovarian stimulation can occur” value (ovarian stimulation) was 1 mg, the “CLpl (CL/F)” value ([7]; Human, oral administration) was 0.33 mL/min/kg and the “oral bioavailability (F)” value ([7]; humans) was “approximately 1”. The “estradiol levels during the follicular phase compared to the placebo group” value (pituitary-ovarian axis; 390 μg per day initial release, P value <0.0478) was “lowers the estradiol levels significantly; also recorded: significant fall during the follicular phase”, the “E2 AUC (cycle days 1-26)” value (pituitary-ovarian axis; [8]) was 4862 ± 1986 pmol/L and the “E2 AUC (follicular, cycle days 1-17)” value (pituitary-ovarian axis; [8]) was 3854 ± 927.5 pmol/L/day. For the same molecule, the “E2 AUC (luteal, cycle days 17-26)” value (pituitary-ovarian axis; [8]) was 403.2 ± 169.7 pmol/L, the “FSH Mean level/day without preovulatory maximum” value (pituitary-ovarian axis; [8]) was 5.52 ± 3.07 µg/L and the “Progesterone Mean level/day Follicular phase” value (pituitary-ovarian axis; [8]) was 5.57 ± 5.11 nmol/L. The “Progesterone Mean level/day Luteal phase” value (pituitary-ovarian axis; [8]) was 91.92 ± 52.78 nmol/L, the “E2 AUC (cycle days 1-26)” value (pituitary-ovarian axis; [9]) was 4126 ± 2063 pmol/L and the “E2 AUC (follicular, cycle days 1-17)” value (pituitary-ovarian axis; [9]) was 3235 ± 1101 pmol/L/day. For the same molecule, the “E2 AUC (luteal, cycle days 17-26)” value (pituitary-ovarian axis; [9]) was 605.1 ± 264.1 pmol/L, the “FSH Mean level/day without preovulatory maximum” value (pituitary-ovarian axis; [9]) was 4.90 ± 2.58 µg/L and the “Progesterone Mean level/day Follicular phase” value (pituitary-ovarian axis; [9]) was 6.58 ± 3.91 nmol/L. For the same molecule, the “Progesterone Mean level/day Luteal phase” value (pituitary-ovarian axis; [9]) was 60.02 ± 22.65 nmol/L, the “E2 AUC (cycle days 1-26)” value (pituitary-ovarian axis; [10]) was 2784 ± 999.8 pmol/L and the “E2 AUC (follicular, cycle days 1-17)” value (pituitary-ovarian axis; [10]) was 1978 ± 350.6 pmol/L/day. The “E2 AUC (luteal, cycle days 17-26)” value (pituitary-ovarian axis; [10]) was 342.9 ± 135.2 pmol/L, the “FSH Mean level/day without preovulatory maximum” value (pituitary-ovarian axis; [10]) was 4.83 ± 2.91 µg/L and the “Progesterone Mean level/day Follicular phase” value (pituitary-ovarian axis; [10]) was 4.58 ± 2.64 nmol/L. For the same molecule, the “Progesterone Mean level/day Luteal phase” value (pituitary-ovarian axis; [10]) was 92.88 ± 55.50 nmol/L and the “counterregulation by the pituitary-ovarian axis” value (pituitary-ovarian axis; at the dosages used (27, 85, 390 μg/day), compared to placebo) was “fails to occur”.

In the case of `CC(=O)O[C@]1(C(C)=O)CC[C@H]2[C@@H]3C=C(Cl)C4=CC(=O)CC[C@]4(C)[C@H]3CC[C@@]21C` [Chlormanidone acetate], the Ovulation inhibition dose (ovulation; Neumann et al) is listed as 1500-2000 μg/day p.o and the Ovulation inhibition dose (ovulation; Taubert & Kuhl) is listed as 1700 μg/day p.o.

For `CC(=O)O[C@]1(C(C)=O)CC[C@H]2[C@@H]3C=C(Cl)C4=CC(=O)[C@@H]5C[C@@H]5[C@]4(C)[C@H]3CC[C@@]21C` [Cyproterone acetate], the Ovulation inhibition dose (ovulation; Neumann et al) is listed as 1000 μg/day p.o and the Ovulation inhibition dose (ovulation; Taubert & Kuhl) is listed as 1000 μg/day p.o.

In the case of `C#C[C@]1(O)CC[C@H]2[C@@H]3CCC4=CCCC[C@@H]4[C@H]3C(=C)C[C@@]21CC` [Desogestrel], the Ovulation inhibition dose (ovulation; Neumann et al) is given as 60 μg/day p.o and the Ovulation inhibition dose (ovulation; Taubert & Kuhl) is given as 60 μg/day p.o.

In the case of `C[C@]12CCC3=C4CCC(=O)C=C4CC[C@H]3[C@@H]1CC[C@@]2(O)CC#N` [Dienogest], the Ovulation inhibition dose (ovulation; Neumann et al) is listed as 1000 μg/day p.o.

In the case of `C[C@]12CCC(=O)C=C1[C@@H]1C[C@@H]1[C@H]1[C@@H]3[C@@H]4C[C@@H]4[C@@]4(CCC(=O)O4)[C@@]3(C)CC[C@@H]12` [Drospirenone], the Ovulation inhibition dose (ovulation; Neumann et al) is given as 2000 μg/day p.o.

For `C#C[C@]1(O)C=C[C@H]2[C@@H]3CCC4=CC(=O)CC[C@@H]4[C@H]3CC[C@@]21CC` [Gestodene], the Ovulation inhibition dose (ovulation; Neumann et al) is listed as 30 μg/day p.o and the Ovulation inhibition dose (ovulation; Taubert & Kuhl) is listed as 30 μg/day p.o.

In the case of `N#Cc1ccc(C(c2ccc(C#N)cc2)n2cncn2)cc1` [Letrozole, letrozole], the “oral dosage at which ovarian stimulation can occur” value (ovarian stimulation) is given as 2.5 mg.

For `C#C[C@]1(O)CC[C@H]2[C@@H]3CCC4=CCCC[C@@H]4[C@H]3CC[C@@]21C` [Lynestrenol], the Ovulation inhibition dose (ovulation; Neumann et al) is given as 2000 μg/day p.o and the Ovulation inhibition dose (ovulation; Taubert & Kuhl) is given as 2000 μg/day p.o.

In the case of `CC(=O)O[C@]1(C(C)=O)CC[C@H]2[C@@H]3C[C@H](C)C4=CC(=O)CC[C@]4(C)[C@H]3CC[C@@]21C` [Medroxyprogesterone acetate], the Ovulation inhibition dose (ovulation; Neumann et al) is listed as 10 μg/day p.o.

For `C#C[C@]1(OC(C)=O)CC[C@H]2[C@@H]3CCC4=CC(=O)CC[C@@H]4[C@H]3CC[C@@]21C` [Norethisterone acetate], the Ovulation inhibition dose (ovulation; Neumann et al) is given as 500 μg/day p.o.

For `C#C[C@]1(O)CC[C@H]2[C@@H]3CCC4=CC(=O)CC[C@@H]4[C@H]3CC[C@@]21C` [Norethisterone], the Ovulation inhibition dose (ovulation; Neumann et al) is listed as 500 μg/day p.o and the Ovulation inhibition dose (ovulation; Taubert & Kuhl) is listed as 400 μg/day p.o.
